Series [1] can be described thus: Self-assembly at neutral pH, visual appearance. The series is classed as physicochemical. Conditions: 1 part RADA16 solution (1 wt % in water) added to 1 part DMEM, neutral pH 7.
Series [2] in a line: Mechanical properties (G′) of SAP gels in different ions and buffer systems. The series is classed as physicochemical. The method, then:
FIG. 5: Mechanical properties are dependent on the presence of different ions and buffer systems. […] Since NO3− are monovalent ions, and ionic strength of the solution was below 130 mM, P11-8 self-assembling was slowed down. On the other hand self-assembling kinetic of P11-8 with DMEM and NaCl solution is very similar.

Series [3] has as its system hPDLF cells (human periodontal ligament fibroblasts). Kind of series: Cell viability on SAP hydrogels compared to Emdogain (PrestoBlue). The series is classed as cell-based. The following applies: all concentrations tested (15, 20, 30 mg/ml SAP); 24, 48, 96 h; Emdogain 30 mg/ml. The protocol: (§1) Left column 15 mg/ml SAP, middle column: 20 mg/ml SAP, right column 30 mg/ml SAP for each SAP, for Emdogain®, the concentration is constant at 30 mg/ml, and the three columns show 24, 48 and 96 h administration. […] Collagen (1.5 mg/ml) was used as a test system control. Cell proliferation was measured by the metabolic conversion of PrestoBlue viability reagent. Data were normalized in respect to values measured at day 1.
(§2) Proliferation of hPDLF (periodontal ligament fibroblasts) and SAOS-2 (Sarcoma osteogenic) cells on self-assembling peptides (P11-4, P11-8, P11-13 and P11-14, 15 mg/ml SAP, 20 mg/ml SAP, 30 mg/ml SAP respectively) was compared to the current gold standard Emdogain® and/or collagen after 24, 48 and 96 h. For Emdogain®, the concentration is constant at 30 mg/ml. Viability was measured by PrestoBlue® Cell Viability Reagent A13261.

Series [4] concerns SAOS-2 cells (Sarcoma osteogenic). Described as above. In kind it is cell-based. The method, then: as §1, §2
Another series deals with PDLF cells. Kind of series: Stability of SAP matrices in contact with PDLF cells or medium (peptide in supernatant, UV-spectroscopy). In kind it is cell-based. Conditions: 20 mg/ml P11-4, 15 mg/ml others; 2000 PDLF cells/well or medium; 24 h. The protocol: Different SAP hydrogels or matrices (20 mg/ml for P11-4; 15 mg/ml for […]) were contacted with 2000 PDLF cells/well or medium. Degradation was measured after 24 h by detection of peptide concentration in the supernatant by UV-spectroscopy. No significant effect of the cells was seen.

Series [5] relates to periodontal ligament fibroblasts (PDLF). The series can be described thus: In vitro periodontal pocket model, migration of PDLF out of donor compartment. The following applies: P11-4 20 mg/ml, all others 15 mg/ml. The series is classed as cell-based, human. The method, then: FIG. 6: Cell migration of a 15 mg/ml P11-4 gel on a periodontal ligament model after 8 days of incubation. Human Periodontal Ligament cells were placed in a cell pool (A) and the SAP gel (C) placed on the human dentin (B). The cell/SAP-gel/dentin was then incubated for 8 days and visually assessed resulting in migration of up to 5 mm. Scale bar: 1 mm
An in vitro model of a periodontal pocket (Meyer et al., 2016) was used to assess the migration distance of periodontal ligament fibroblasts (PDLF) out of the donor compartment. In brief, to determine early processes of tissue healing, three endpoints were investigated: Adhesion, proliferation and migration of human primary periodontal ligament fibroblasts (PDLF, ScienCell). In order to mimic the in vivo conditions as close as possible, pure bovine dentin surface served as underlying structure. Adhesion and proliferation of PDLF was assessed in a time dependent manner using ATP viability Kit (Promega). Visualization of the cells on the matrix was realized by SEM. For evaluation of cell adhesion and proliferation, Emdogain® (Straumann) was used as a positive control, as it has already proven its efficacy to promote periodontal regeneration in vivo. […]
PDLF cells were allowed to migrate in different SAP or collagen hydrogels (P11-4: 20 mg/ml; all others 15 mg/ml), as explained in Example L. Migration distances were analyzed after 4 and 8 days. […]

The next series deals with S. sanguinis. Kind of series: Release of antibiotics from self-assembling peptide gels, bacterial growth by turbidity OD600. The series is classed as cell-based. The following applies: antibiotic 150 mg/ml in SAP gels 15 mg/ml (P11-4, P11-13/14, P11-28/29); OD600 normalized to gel without antibiotic; over 120 hours. The protocol: (§3) FIG. 1: Bacterial density after release of antibiotics (150 mg/ml) from self-assembling peptide gels (15 mg/ml), and the impact thereof to the growth of P. gingivalis (A-C) and S. sanguinis (D-F). Circles: metronidazol, stars: tetracycline, triangle: ciprofloxacin, squares: doxycycline hyclate; control: gel without API
(§4) Hydrogels comprising self-assembling peptides with (150 mg/ml) and without antibiotics were formed by dissolving the respective peptides at a concentration of 15 mg/ml or equimolar for combination SAP in a concentration of −10 mg*ml-1 as follows:
(§5) For the gels formed by peptides P11-13 and P11-14: or for P11-28 and P11-29, equimolar solutions of peptides were prepared in a well plate, and pH corrected to physiological conditions, resulting in a gel.
(§6) Furthermore 100 uL/well of a defined anaerobic P. gingivalis or aerobic S. anguines bacterial culture (10^7 CFU/ml e.g. 990 μl BHI medium, 10 μl 10^8 CFU/ml bacteria suspension) were added onto the gels. Impact on growth was assessed by measuring turbidity at OD600 nm. Data obtained with antibiotics were normalized to control (gel+bacteria+medium without antibiotics) to analyse the relative bacterial density. 50 μl/well of medium were added every second day.

The test system of a further series is P. gingivalis. The description is as above. The series is classed as cell-based. The following applies: antibiotic 150 mg/ml in SAP gels 15 mg/ml (P11-4, P11-13/14, P11-28/29); OD600 normalized to gel without antibiotic; over 120 hours. The method, then:
as §3, §4, §5, §6

Where no end group is shown, it is not given here. [ ]: non-standard residue; d: D form. Orn = NCCC[C@H](N)C(=O)O

For RADA16, the self-assembly entry in series [1] is “No self-assembling is visible”.

Take “QQRFOWOFEQQ (QQRF[Orn]W[Orn]FEQQ) [P11-8, self-assembling peptide]”: the “storage modulus G′ / self-assembling kinetic of gel” value in series [2] (DMEM pH 7.4 versus Tris-NaCl) was “very similar”. For the same compound, the “storage modulus G′ of gel” value in series [2] (artificial saliva (Tris 120 mM, Ca(NO3) 4 mM, KH2PO4 2.4 mM, pH 7.2) versus Tris-NaCl, DMEM, Tris MgSO4) is recorded as “lowest storage modulus was achieved with artificial saliva”. For the same compound, the “cell viability compared to Emdogain” value is reported as “increased cell viability of hPDLF cells compared to Emdogain®” in series [3]; “strongly increased” in series [4] (30 mg/ml SAP); “slightly increased or about equal” in series [4] (the other concentrations (15, 20 mg/ml SAP)). The “degradation (peptide concentration in the supernatant)” value with PDLF cells is “degraded slightly more than the other SAP”. In series [5], the “homogenous migration of PDLF cells, visually” value is “most obvious”. The “migration distance of PDLF cells compared to collagen” value in series [5] (after 4 days) is listed as “slightly increased compared to collagen”.

As for `Cc1ncc([N+](=O)[O-])n1CCO` [metronidazole], the “impact of antibiotic released from SAP gel on bacterial growth (relative bacterial density)” value in the series on S. sanguinis and in the series on P. gingivalis was “low effectivity in most systems at this concentration” in each case.
